The subject of experiment [1] is R-FSL-1 (TLR2 agonist)-induced NO production in RAW macrophage cell line. The experiment can be described thus: Nitric oxide (NO) production induced by TLR2 agonist R-FSL-1 in RAW macrophage cell line. Type of experiment: cell-based, murine. The conditions noted are these: RAW macrophages; for suppression of NO production compared with positive control MPE-001 at the same concentration / suppression of R-FSL-1-mediated NO production at 10^−7 M: 10^−7 M, FIG. 4F; for suppression of R-FSL-1-mediated NO production at 10^−7 M: further analyses; for R-FSL-1-mediated NO production, % of control: control = R-FSL-1 only, noticeable reduction without reaching significance (P<0.01). As for the experimental part:
The murine RAW1 macrophage cell line was obtained from American Type Cell Collection (ATCC #TIB-71), seeded at 1.5×10^5 cells/well in Dulbecco's Modified Eagle's medium (DMEM) containing 100 U/mL of penicillin (Pen) and 100 μg/mL of streptomycin (Strep) on a 48-well plate (Costar® #3548), and incubated at 37° C. with 5% CO2. After 2 h, the cell culture medium of adhered cells was removed and replaced by DMEM-Pen/Strep medium containing 0.2% of bovine serum albumin (BSA), and supplemented with the cyclic peptides at a concentration of 10^−6 or 10^−7 M. MPE-001 (DBG178, His-D-Trp-Ala-AzaTyr-D-Phe-Lys-NH2) and [azaLys^6]-GHRP-6 (His-D-Trp-Ala-Trp-D-Phe-azaLys-NH2, negative control) at 10^−6 M were used as positive and negative controls, respectively. After 1 h pre-incubation, the cells were stimulated overnight using the TLR2 ligand fibroblast-stimulating lipopeptide (R-FSL-1) (Invivogen® #L7022) at a concentration of 300 ng/mL. Supernatants were then collected for nitrite production analysis by fluorescence using 2,3-diaminonaphthalene (DAN). Briefly, 25 μL of sample was incubated with 0.5 μg of DAN in a 100 μL final volume of phosphate buffer (50 mM, pH 7.5) at room temperature in the dark. After 15 min, the reaction was stopped with 20 μL of NaOH (2.8N) and the plate was read using a fluorescence plate reader (TECAN® Safire, λexc 365 nm and λem 430 nm).

The target in the next experiment is T1, CD36 (Rattus norvegicus, UniProt Q07969).
T1 construct: from tissue; host or cells: Heart (cardiac membranes) of Sprague Dawley rats from Charles River
T1 sequence (Q07969 whole entry): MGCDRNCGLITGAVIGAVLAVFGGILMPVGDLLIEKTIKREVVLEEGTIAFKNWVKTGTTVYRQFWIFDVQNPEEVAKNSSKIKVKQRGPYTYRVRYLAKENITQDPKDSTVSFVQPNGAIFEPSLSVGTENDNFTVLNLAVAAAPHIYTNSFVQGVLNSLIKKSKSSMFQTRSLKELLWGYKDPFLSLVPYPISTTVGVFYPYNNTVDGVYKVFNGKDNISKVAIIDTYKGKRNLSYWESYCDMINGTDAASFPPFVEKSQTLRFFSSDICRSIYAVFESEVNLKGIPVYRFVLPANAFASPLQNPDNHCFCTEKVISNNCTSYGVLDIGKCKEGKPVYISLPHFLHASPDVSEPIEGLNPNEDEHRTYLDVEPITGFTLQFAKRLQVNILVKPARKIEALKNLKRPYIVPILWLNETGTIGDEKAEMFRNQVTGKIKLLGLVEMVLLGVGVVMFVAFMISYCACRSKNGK
Briefly: Competition binding of photoactivatable [125I]-Tyr-Bpa-Ala-Hexarelin to CD36 in rat cardiac membranes. The conditions noted are these: competition with [125I]-Tyr-Bpa-Ala-Hexarelin, rat heart membranes; for IC50: read-out: IC50 (μM), binding affinity for CD36. As to the method: Hearts from Sprague Dawley rats (300-325 g) from Charles River were cut into small pieces and homogenized with a Polytron® at low speed, 3×15 sec in buffer A (10 mM NaHCO3, 5 mM NaN3, 10 μM Pefabloc®, 0.1 μM Aprotinin, 1 μM Pepstatin A, 1 μM Leupeptin, pH 7.0) at a concentration of […] of tissue. The homogenate was first centrifuged at 8,700×g for 20 min in a Sorvall® centrifuge and the supernatant was collected on ice. The pellet was resuspended and re-homogenized with a Glass-Teflon® Potter by 5 strokes. This homogenate was recentrifuged at 8,700×g for 10 min and the resulting supernatant was combined with the first collected supernatant. The combined supernatant was centrifuged at 35,000×g for 20 min. The pellet fraction obtained was resuspended in Buffer B (20 mM Tris-maleate, 0.6M KCl, pH 6.8) in a volume corresponding to 20 mL/g of fresh tissue using a glass homogenizer with a Teflon pestle. The resulting suspension was centrifuged again at 35,000×g for 60 min. and the pellet fraction obtained was resuspended in Buffer C (10 mM Tris/HCl buffer pH 7.4) and thoroughly homogenized in a glass with a Teflon® pestle (20 ml/g of fresh tissue). This suspension was submitted to another centrifugation at 35,000×g for 60 min. The collected pellet was resuspended in 50 mM Tris/HCl buffer pH 7.4) containing 2 mM EGTA in a final volume corresponding to 1-2 mL/g of fresh tissue. The membrane preparation obtained was frozen at −80° C. Protein concentration was determined using the bicinchoninic acid (BCA) method, employing BSA as standard.
The reaction was started by adding 3 nmol of H2O2 for 5 min at room temperature. This step was repeated twice with a period of 5 min of incubation for each addition. The reaction was stopped by diluting the mixture with 1 mL of 0.1% TFA. The radioiodinated peptide was purified by HPLC on a reverse-phase Vydac® C18 column with a 60-min linear gradient from 20% to 50% of acetonitrile in 0.1% TFA. The eluted radiolabelled tracer was collected, aliquoted (50×10^6 cpm/fraction) and stored at −80° C.
Binding studies with MPE-298 were done with increasing concentrations from 0.01 to 5 μM of competition ligands. Nonspecific binding was defined as binding not displaced by 50 μM corresponding peptide. All peptide containing solutions were diluted in Buffer B. Buffer A and B were degassed under vacuum, and used in capped tubes in order to minimize lipid peroxidation. Before the incubation period, all tubes were put under a low flow of nitrogen. All material was kept on ice and the binding assay was performed in darkness. After an incubation period of 60 min at 22° C. (vortexing every 15 min), membranes were submitted to irradiation with UV lamps (365 nm) for 15 min at 4° C. After centrifugation at 12,000×g for 15 minutes, the pellets were resuspended in 40 μl of sample buffer (62 mM Tris-HCl, pH 6.8, 2% SDS, 10% glycerol, 15% 2-mercaptoethanol, and 0.05% bromophenol blue), and boiled for 5 min prior to being subjected to electrophoresis. Proteins (50 μg/40 μl) were separated on a 7.5% SDS-PAGE Bio-Rad® Mini-Protean electrophoresis system (150 V for 1 h). The gels resulting from SDS/PAGE were fixed, colored in Coomassie Brilliant Blue R-250, dried, exposed to a storage phosphor intensifying screen (Amersham Biosciences), and analysed using a Typhoon® PhosphorImager (GE Healthcare Life Sciences®). […] The curves were analysed by using software package (Graphpad® prism version 7.0).

In a further experiment the test system is apoE−/− mice. The experiment can be described thus: Murine atherosclerosis model (apoE−/− mice on atherogenic diet), aortic lesions. The conditions noted are these: 300 nmol/kg daily s.c. for 8 weeks. Type of experiment: in vivo. As for the experimental part: Experiments were performed in male apoE−/− mice fed an atherogenic diet (D12108, cholate-free AIN-76A semi-purified diet, Research Diets Inc., New Brunswick, NJ) from 4 weeks of age. MPE-298 (300 nmol/kg), MPE-267 (300 nmol/kg) or vehicle (0.9% NaCl), were administered by daily by subcutaneous (s.c.) injections for 8 weeks, from 12 weeks of age, as shown schematically in FIG. 8A.

Experiment [2] concerns R-FSL-1 (TLR2 agonist)-induced TNF-α and CCL-2 release in RAW macrophages. The experiment can be described thus: R-FSL-1-induced TNF-α and CCL-2 release in RAW macrophages. Type of experiment: cell-based, murine. As to conditions: 10^−7 M. As for the experimental part: The murine RAW1 macrophage cell line was obtained from American Type Cell Collection (ATCC #TIB-71). RAW cells were seeded at 150,000 cells per well in a 48-well plate (Costar® #3548) and weaned overnight in medium (DMEM supplemented 1% penicillin/streptomycin) at 37° C. with 5% CO2. The next day, the medium was changed to DMEM-1% penicillin/streptomycin supplemented with 0.2% BSA. The cells were first pretreated with 300 μL of azapeptides DBG178 (MPE-133, reference standard), 25 (MPE-210), 26 (MPE-266), 28 (MPE-268), 32 (MPE-267), 33 (MPE-298), 38 (MPE-308), 35 (MPE-300), 39 (MPE-310) and azaLys6-GHRP-6 (as negative control) at 10^-7M for 30 min. Then, […] of the TLR2 agonist, R-FSL-1 (300 ng/ml final concentration, R-FSL-1, Invivogen® #L7022) was added for 4 h period of incubation at 37° C. with 5% CO2. At the end of the incubation period, media were collected and stored at −80° C. for TNF-α and CCL-2 assays using ELISA kits (EbioScience® #88-7391 and #88-7324). Results were analyzed by analysis of variance (ANOVA) with post hoc comparisons using Dunnett's test with a statistical software package (Graph Pad Prism® version 7.0). P<0.05 was considered statistically significant.

Experiment [3] shares this test system. The description is as above. It is filed as cell-based, murine. As to conditions: 10^−7 M. This is another data set of the same source.

For orientation: IC50 means the concentration that gives 50% inhibition.

On to `C=CCN1CC#CCN(NC(=O)[C@H](C)N)C(=O)N[C@@H](C)C(=O)N[C@@H](Cc2c[nH]c3ccccc23)C(=O)N[C@H](Cc2ccccc2)C(=O)N[C@H](C(N)=O)CCCC1` [MPE-267], for which, in experiment [1] (at the concentration tested (10^−6 or 10^−7 M), FIGS. 4A to 4F), the “suppression of R-FSL-1-mediated NO production” value is “significant suppression”. In addition, at CD36, the concentration for half-maximal inhibition (IC50) stood at 0.24 µM. Also, the “reduction of aortic lesions relative to 0.9% NaCl (vehicle)” value with apoE−/− mice amounted to 28%. In experiment [2], the “effect on R-FSL-1-induced CCL-2 release” value is “significant inhibitory effect” and the “effect on R-FSL-1-induced TNF-α release” value was “significant inhibitory effect”.

As to `C=CCN1CC#CCN(NC(C)=O)C(=O)N[C@H](Cc2c[nH]c3ccccc23)C(=O)N[C@@H](C)C(=O)N[C@@H](Cc2c[nH]c3ccccc23)C(=O)N[C@H](Cc2ccccc2)C(=O)N[C@H](C(N)=O)CCCC1` [MPE-310], in experiment [1], the “suppression of NO production compared with positive control MPE-001 at the same concentration” value was “more important”; the “suppression of R-FSL-1-mediated NO production at 10^−7 M” value was “significant suppression”; the “R-FSL-1-mediated NO production, % of control” value is on record as “about 80 % of control”. Further, the IC50 at CD36 worked out at 0.89 µM. Also, the “inhibitory effect on R-FSL-1-induced CCL-2 release compared with reference standard DBG178 (MPE-001)” value in experiment [3] was “significantly higher”. Moreover, in experiment [2], the “effect on R-FSL-1-induced CCL-2 release” value is “significant inhibitory effect” and the “effect on R-FSL-1-induced TNF-α release” value was “significant inhibitory effect”.

Turning to `C=CCN1CC#CCN(NC(=O)[C@H](C)NC(C)=O)C(=O)N[C@H](Cc2c[nH]c3ccccc23)C(=O)N[C@@H](C)C(=O)N[C@@H](Cc2c[nH]c3ccccc23)C(=O)N[C@H](Cc2ccccc2)C(=O)N[C@H](C(N)=O)CCCC1` [MPE-308], in experiment [1], the “suppression of NO production compared with positive control MPE-001 at the same concentration” value is reported as “more important”; the “suppression of R-FSL-1-mediated NO production at 10^−7 M” value is given as “significant suppression”; the “R-FSL-1-mediated NO production, % of control” value is “about 80 % of control”. For the same compound, at CD36, the concentration for half-maximal inhibition (IC50) is 0.67 µM. In experiment [2], the “effect on R-FSL-1-induced CCL-2 release” value is given as “significant inhibitory effect” and the “effect on R-FSL-1-induced TNF-α release” value is given as “significant inhibitory effect”.

As to `C=CCN1CC#CCN(N)C(=O)N[C@H](Cc2c[nH]c3ccccc23)C(=O)N[C@@H](C)C(=O)N[C@@H](Cc2c[nH]c3ccccc23)C(=O)N[C@H](Cc2ccccc2)C(=O)N[C@H](C(N)=O)CCCC1` [MPE-268], in experiment [1], the “suppression of NO production compared with positive control MPE-001 at the same concentration” value is reported as “more important”; the “suppression of R-FSL-1-mediated NO production at 10^−7 M” value is given as “significant suppression”; the “R-FSL-1-mediated NO production, % of control” value is recorded as “about 80 % of control”. The “binding to CD36 (in words)” value on CD36 is reported as “no significant binding affinity”. For the same compound, in experiment [2], the “effect on R-FSL-1-induced CCL-2 release” value is reported as “no significant effect” and the “effect on R-FSL-1-induced TNF-α release” value is reported as “no significant effect”.

These data come from US11879021B2, “Cyclic peptides and uses thereof” (UNIVERSITÉ DE MONTRÉAL, priority 2016, dated 2024).
